Where “and” joins values, the source holds several entries; their conditions need not be identical. Equal values may be shown once.
How the values were obtained:
DLD-1 cells = experiment: Crizotinib synergistic effect with BRAFi in colorectal cells (FIG. 9); format: cell-based, human
Source text: The DLD-1 cells do harbor the BRAF activating mutation V600E but are not sensitive at all to BRAF inhibition. They actually grow faster under BRAFi.

[1] = test system: V600E BRAF melanoma cell lines; experiment: HGF-induced / stromal resistance of melanoma cell lines to BRAF, MEK and AKT inhibitors and its reversal; format: cell-based, human; conditions: V600E BRAF melanoma cell lines with recombinant HGF
[2] = test system: BRAF V600E melanoma patients; experiment: Clinical response of BRAF V600E melanoma patients to BRAFi or BRAFi + MEKi (Table 7); format: in vivo, human; conditions: one line per patient
[3] = test system: six V600E BRAF melanoma cell lines; experiment: Screening of recombinant RTK ligands for ability to confer resistance to BRAFi (PLX4720) or MEKi (PD184352) (Table 4); format: cell-based, human; parameters: ability of recombinant RTK ligand to confer resistance / ability of recombinant RTK ligand to confer resistance (screening value): scale not given here
In short: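 Six V600E BRAF melanoma lines treated with PLX4720 or PD184352 after addition of 22 recombinant RTK ligands, scored for drug resistance. Activation of selected RTKs confirmed by western blotting and high-throughput tyrosine kinase phosphorylation profiling.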

pERK/pAKT = experiment: High-throughput western analysis of pERK/pAKT re-activation by RTK ligands under BRAFi/MEKi; format: cell-based, human; conditions: under BRAFi (PLX4720); after 1 hour of cytokine treatment; six V600E BRAF melanoma cell lines
Method: FIG. 23B is a western blot showing the activation of AKT (phosphorylated AKT, S473) after 1 hour and 24 hours after treatment with HGF, IGF-1 (IGF), and Insulin (INS) in the presence of BRAFi (PLX4720, 2 μM). FIG. 23C is a western blot showing the effect of HGF (25 ng/mL) on MAPK and PI3K/AKT pathway activation (pRAF1, pMEK, pERK, pAKT and pMET) in melanoma cell lines after 24 hours of treatment with 2 μM BRAFi (PLX4720) or 2 μM MEKi (PD184352).
To understand why, of all the RTKs tested, only HGF could induce such a unique primary resistance phenotype, a high-throughput western analysis was used to test the ability of all 22 RTK ligands to re-activate pERK/pAKT under BRAFi (PLX4720) treatment in six V600E BRAF melanoma cell lines. […] However, whereas the activation of both ERK and AKT by HGF under PLX4720 treatment was long lasting, the activation of either ERK or AKT by the above cytokines was only transient and thus could not confer resistance to the melanoma cell lines.

C[C@@H](Oc1cc(-c2cnn(C3CCNCC3)c2)cnc1N)c1c(Cl)ccc(F)c1Cl [Crizotinib]
synergistic effect of Crizotinib (DLD-1 cells; DLD-1 cells, FIG. 9B): no substantial synergistic effect | sensitivity of colorectal cancer cell line to BRAFi on addition of Crizotinib (DLD-1 cells; cell line printed as DLD-1, BRAF V600E): restores full sensitivity | reversal of HGF-conferred BRAF/MEK inhibitor resistance [1]: directly reversed

CC(C)(C)c1nc(-c2cccc(NS(=O)(=O)c3c(F)cccc3F)c2F)c(-c2ccnc(N)n2)s1 [GSK2118436]
Response (Max) [2]: 9% and 40% | Time to progression (months) [2]: 3.5 months and 2.5 months

CCCS(=O)(=O)Nc1ccc(F)c(C(=O)c2c[nH]c3ncc(-c4ccc(Cl)cc4)cc23)c1F [Vemurafenib]
Response (Max) [2]: 90% and 72% (2×) and 50% and 100% and 25% and 23% and 22% and 10% and 0% (4×) and 54% and 34% and 20% and 56% and 27% | Response (Max), category [2]: POD | Time to progression (months) [2]: 7 months and 3.2 months and 5 months (2×) and 3 months and 12.4 months and 8 months and 5.4 months and 4.5 months and 8.5 months and 6.0 months and 7.3 months and 3.5 months and 6.5 months and 1.3 months

EGF: RTK ligand (EGFR), cytokine tested
ability of recombinant RTK ligand to confer resistance ([3]; A2058, PD184352 - 1 uM, ligand 0.4 ng/ml): 1.05 | ability of recombinant RTK ligand to confer resistance ([3]; A2058, PD184352 - 1 uM, ligand 1.6 ng/ml): 1.04 | ability of recombinant RTK ligand to confer resistance ([3]; A2058, PD184352 - 1 uM, ligand 6.25 ng/ml): 0.95 | ability of recombinant RTK ligand to confer resistance ([3]; A2058, PD184352 - 1 uM, ligand 25 ng/ml): 0.96 | ability of recombinant RTK ligand to confer resistance ([3]; A2058, PD184352 - 1 uM, ligand 100 ng/ml): 1.00 | ability of recombinant RTK ligand to confer resistance ([3]; A2058, PLX4720 - 2 uM, ligand 0.4 ng/ml): 1.02 | ability of recombinant RTK ligand to confer resistance ([3]; A2058, PLX4720 - 2 uM, ligand 1.6 ng/ml): 1.03 | ability of recombinant RTK ligand to confer resistance ([3]; A2058, PLX4720 - 2 uM, ligand 6.25 ng/ml): 0.93 | ability of recombinant RTK ligand to confer resistance ([3]; A2058, PLX4720 - 2 uM, ligand 25 ng/ml): 0.97 | ability of recombinant RTK ligand to confer resistance ([3]; A2058, PLX4720 - 2 uM, ligand 100 ng/ml): 0.99 | ability of recombinant RTK ligand to confer resistance ([3]; C32, PD184352 - 1 uM, ligand 0.4 ng/ml): 1.01 | ability of recombinant RTK ligand to confer resistance ([3]; C32, PD184352 - 1 uM, ligand 1.6 ng/ml): 0.97 | ability of recombinant RTK ligand to confer resistance ([3]; C32, PD184352 - 1 uM, ligand 6.25 ng/ml): 1.06 | ability of recombinant RTK ligand to confer resistance ([3]; C32, PD184352 - 1 uM, ligand 25 ng/ml): 1.01 | ability of recombinant RTK ligand to confer resistance ([3]; C32, PD184352 - 1 uM, ligand 100 ng/ml): 0.99 | ability of recombinant RTK ligand to confer resistance ([3]; C32, PLX4720 - 2 uM, ligand 0.4 ng/ml): 1.06 | ability of recombinant RTK ligand to confer resistance ([3]; C32, PLX4720 - 2 uM, ligand 1.6 ng/ml): 0.94 | ability of recombinant RTK ligand to confer resistance ([3]; C32, PLX4720 - 2 uM, ligand 6.25 ng/ml): 1.03 | ability of recombinant RTK ligand to confer resistance ([3]; C32, PLX4720 - 2 uM, ligand 25 ng/ml): 0.93 | ability of recombinant RTK ligand to confer resistance ([3]; C32, PLX4720 - 2 uM, ligand 100 ng/ml): 0.99 | ability of recombinant RTK ligand to confer resistance ([3]; Colo 829, PD184352 - 1 uM, ligand 0.4 ng/ml): 0.97 | ability of recombinant RTK ligand to confer resistance ([3]; Colo 829, PD184352 - 1 uM, ligand 1.6 ng/ml): 0.96 | ability of recombinant RTK ligand to confer resistance ([3]; Colo 829, PD184352 - 1 uM, ligand 6.25 ng/ml): 0.99 | ability of recombinant RTK ligand to confer resistance ([3]; Colo 829, PD184352 - 1 uM, ligand 25 ng/ml): 0.94 | ability of recombinant RTK ligand to confer resistance ([3]; Colo 829, PD184352 - 1 uM, ligand 100 ng/ml): 1.00 | ability of recombinant RTK ligand to confer resistance ([3]; Colo 829, PLX4720 - 2 uM, ligand 0.4 ng/ml): 1.02 | ability of recombinant RTK ligand to confer resistance ([3]; Colo 829, PLX4720 - 2 uM, ligand 1.6 ng/ml): 1.00 | ability of recombinant RTK ligand to confer resistance ([3]; Colo 829, PLX4720 - 2 uM, ligand 6.25 ng/ml): 1.00 | ability of recombinant RTK ligand to confer resistance ([3]; Colo 829, PLX4720 - 2 uM, ligand 25 ng/ml): 0.97 | ability of recombinant RTK ligand to confer resistance ([3]; Colo 829, PLX4720 - 2 uM, ligand 100 ng/ml): 1.01 | ability of recombinant RTK ligand to confer resistance ([3]; G-361, PD184352 - 1 uM, ligand 0.4 ng/ml): 1.01 | ability of recombinant RTK ligand to confer resistance ([3]; G-361, PD184352 - 1 uM, ligand 1.6 ng/ml): 0.90 | ability of recombinant RTK ligand to confer resistance ([3]; G-361, PD184352 - 1 uM, ligand 6.25 ng/ml): 0.97 | ability of recombinant RTK ligand to confer resistance ([3]; G-361, PD184352 - 1 uM, ligand 25 ng/ml): 1.00 | ability of recombinant RTK ligand to confer resistance ([3]; G-361, PD184352 - 1 uM, ligand 100 ng/ml): 0.96 | ability of recombinant RTK ligand to confer resistance ([3]; G-361, PLX4720 - 2 uM, ligand 0.4 ng/ml): 0.98 | ability of recombinant RTK ligand to confer resistance ([3]; G-361, PLX4720 - 2 uM, ligand 1.6 ng/ml): 0.90 | ability of recombinant RTK ligand to confer resistance ([3]; G-361, PLX4720 - 2 uM, ligand 6.25 ng/ml): 0.94 | ability of recombinant RTK ligand to confer resistance ([3]; G-361, PLX4720 - 2 uM, ligand 25 ng/ml): 0.99 | ability of recombinant RTK ligand to confer resistance ([3]; G-361, PLX4720 - 2 uM, ligand 100 ng/ml): 0.93 | ability of recombinant RTK ligand to confer resistance ([3]; SK-MEL-5, PD184352 - 1 uM, ligand 0.4 ng/ml): 0.99 | ability of recombinant RTK ligand to confer resistance ([3]; SK-MEL-5, PD184352 - 1 uM, ligand 1.6 ng/ml): 1.04 | ability of recombinant RTK ligand to confer resistance ([3]; SK-MEL-5, PD184352 - 1 uM, ligand 6.25 ng/ml): 1.08 | ability of recombinant RTK ligand to confer resistance ([3]; SK-MEL-5, PD184352 - 1 uM, ligand 25 ng/ml): 1.11 | ability of recombinant RTK ligand to confer resistance ([3]; SK-MEL-5, PD184352 - 1 uM, ligand 100 ng/ml): 1.01 | ability of recombinant RTK ligand to confer resistance ([3]; SK-MEL-5, PLX4720 - 2 uM, ligand 0.4 ng/ml): 1.08 | ability of recombinant RTK ligand to confer resistance ([3]; SK-MEL-5, PLX4720 - 2 uM, ligand 1.6 ng/ml): 1.15 | ability of recombinant RTK ligand to confer resistance ([3]; SK-MEL-5, PLX4720 - 2 uM, ligand 6.25 ng/ml): 1.19 | ability of recombinant RTK ligand to confer resistance ([3]; SK-MEL-5, PLX4720 - 2 uM, ligand 25 ng/ml): 1.22 | ability of recombinant RTK ligand to confer resistance ([3]; SK-MEL-5, PLX4720 - 2 uM, ligand 100 ng/ml): 1.11 | ability of recombinant RTK ligand to confer resistance ([3]; SK-MEL-28, PD184352 - 1 uM, ligand 0.4 ng/ml): 1.03 | ability of recombinant RTK ligand to confer resistance ([3]; SK-MEL-28, PD184352 - 1 uM, ligand 1.6 ng/ml): 0.97 | ability of recombinant RTK ligand to confer resistance ([3]; SK-MEL-28, PD184352 - 1 uM, ligand 6.25 ng/ml): 0.93 | ability of recombinant RTK ligand to confer resistance ([3]; SK-MEL-28, PD184352 - 1 uM, ligand 25 ng/ml): 0.97 | ability of recombinant RTK ligand to confer resistance ([3]; SK-MEL-28, PD184352 - 1 uM, ligand 100 ng/ml): 1.05 | ability of recombinant RTK ligand to confer resistance ([3]; SK-MEL-28, PLX4720 - 2 uM, ligand 0.4 ng/ml): 1.00 | ability of recombinant RTK ligand to confer resistance ([3]; SK-MEL-28, PLX4720 - 2 uM, ligand 1.6 ng/ml): 1.01 | ability of recombinant RTK ligand to confer resistance ([3]; SK-MEL-28, PLX4720 - 2 uM, ligand 6.25 ng/ml): 0.97 | ability of recombinant RTK ligand to confer resistance ([3]; SK-MEL-28, PLX4720 - 2 uM, ligand 25 ng/ml): 0.94 | ability of recombinant RTK ligand to confer resistance ([3]; SK-MEL-28, PLX4720 - 2 uM, ligand 100 ng/ml): 1.03 | re-activation of pERK/pAKT (pERK/pAKT): reactivate only ERK

FGF-1: RTK ligand (FGFR), cytokine tested
re-activation of pERK/pAKT (pERK/pAKT): reactivate only ERK

IGF-1: RTK ligand of IGF-1R
ability of RTK ligand to confer primary resistance ([3]; six V600E BRAF melanoma cell lines, BRAFi (PLX4720) or MEKi (PD184352)): not shown to induce primary resistance | re-activation of pERK/pAKT (pERK/pAKT): only reactivate AKT

— patent publication US20140348819A1, “Methods of Treating Cancer” (Dana-Farber Cancer Institute, Inc., priority 2011, published 2014)
